According to article PMC5522996, “Big conductance calcium‐activated potassium channel openers control spasticity without sedation” (British Journal of Pharmacology, 2017):
“Also recorded” adds a separate entry of the source.

Experiments:
GPR55‐deficient ABH mice = assay: Spasticity in GPR55‐deficient mice; type: in vivo, mouse; conditions: 10 mg·kg^−1 i.v.
[1] = Stability in pooled mouse liver microsomes; type: in vitro ADME; conditions: pooled mouse liver microsomes, 37°C, upper limit 100 min, read-out: t ½ in liver microsomes
Procedure: (§1) The stability of compounds when subjected to hepatic and plasma degradation was assessed in vitro by Inpharmatica, Cambridge, UK. Compounds (1 μM) were incubated with either pooled mouse liver microsomes (0.1 mg protein mL^−1) or pooled mouse plasma at 37°C for 0, 5, 10, 20 and 40 min before termination with acetonitrile containing warfarin as an analytical internal standard. Samples were centrifuged, and the resultant supernatant analysed for parent compound. The mass responses at baseline were taken as the 100% reference values against which the disappearance of the compound was measured. The natural log of the % remaining values was used to generate linear plots of disappearance of the compounds. Half‐life values were calculated from the slope of these plots. Hepatocyte metabolism was assessed by Cyprotex, Macclesfield, and 10 μM VSN16R was incubated with primary mouse, rat, monkey (Macaque) and human hepatocytes for 1 h, and the presence of metabolites was assessed using liquid […] mass spectroscopy. The stability of VSN16R was assessed in vivo by Inpharmatica, Cyprotex and Charles Rivers, Cambridge. Blood (plasma) samples were obtained prior to and 5 min to 24 h after drug administration of 2–5 mg·kg^−1 i.v. or 5 mg·kg^−1 p.o. VSN16R into outbred mice and rats (n = 3 per time point). […] Data are expressed as mean ± SEM. […]

[2] = Stability in pooled mouse plasma; type: in vitro ADME; conditions: 37°C, upper limit 100 min, read-out: t ½ in plasma
Procedure: as §1

rats = assay: Reproductive toxicology in rats; type: in vivo, rat; conditions: p.o.
[3] = system: primary porcine aorta endothelium; assay: Patch clamp of primary pig aorta endothelium; type: cell-based
CYP450 2D6 = molecular target: T1, CYP450 2D6 (Homo sapiens, UniProt P10635); assay: CYP450 inhibition of dextromethorphan substrate in liver microsomes; type: in vitro ADME; conditions: read-out: IC50 Inhibition of substrate binding, VSN16R
T1 construct: from tissue; host or cells: liver microsomes
From the text: Inhibition of binding of either 3-cyano-7-ethoxycoumarin, dibenzylfluorescein or 7-benzyoxy-4-
(trifluoromethyl) coumarin in human enzyme transfected BTI NN-5B1-4 cells or Sf9 insect cells or
inhibition of dextromethorphan substrate to CYP450 2D6 in liver microsomes.

A1 = molecular target: T2, A1 (Homo sapiens, UniProt P30542); assay: Receptor binding profile of VSN16R; conditions: 10µM VSN16R
T2 construct: purchased Cerep; Chantest; DiscoveRx; Multispan; MDS Pharma Services

α1(non-selective) = assay: Receptor binding profile of VSN16R; set-up: species or system human; conditions: 10µM VSN16R
D2S = molecular target: T3, D2S (Homo sapiens, UniProt P14416); assay: Receptor binding profile of VSN16R; conditions: 10µM VSN16R
T3 construct: purchased Cerep; Chantest; DiscoveRx; Multispan; MDS Pharma Services

NK2 = molecular target: T4, NK2 (Homo sapiens, UniProt P21452); assay: Receptor binding profile of VSN16R; conditions: 10µM VSN16R
T4 construct: purchased Cerep; Chantest; DiscoveRx; Multispan; MDS Pharma Services

NK3 = molecular target: T5, NK3 (Homo sapiens, UniProt P29371); assay: Receptor binding profile of VSN16R; conditions: 10µM VSN16R
T5 construct: purchased Cerep; Chantest; DiscoveRx; Multispan; MDS Pharma Services

Y2 = molecular target: T6, Y2 (Homo sapiens, UniProt P49146); assay: Receptor binding profile of VSN16R; conditions: 10µM VSN16R
T6 construct: purchased Cerep; Chantest; DiscoveRx; Multispan; MDS Pharma Services

μ = molecular target: T7, μ (Homo sapiens, UniProt P35372); assay: Receptor binding profile of VSN16R; conditions: 10µM VSN16R
T7 construct: purchased Cerep; Chantest; DiscoveRx; Multispan; MDS Pharma Services

5-HT7 = molecular target: T8, 5-HT7 (Homo sapiens, UniProt P34969); assay: Receptor binding profile of VSN16R; conditions: 10µM VSN16R
T8 construct: purchased Cerep; Chantest; DiscoveRx; Multispan; MDS Pharma Services

V1a = molecular target: T9, V1a (Homo sapiens, UniProt P37288); assay: Receptor binding profile of VSN16R; conditions: 10µM VSN16R
T9 construct: purchased Cerep; Chantest; DiscoveRx; Multispan; MDS Pharma Services

K+V channel = assay: Receptor binding profile of VSN16R; set-up: species or system human; conditions: 10µM VSN16R
Cl- channel = assay: Receptor binding profile of VSN16R; set-up: species or system human; conditions: 10µM VSN16R
GPR55 = molecular target: T10, GPR55 (Homo sapiens, UniProt Q9Y2T6); assay: Receptor binding profile of VSN16R
T10 construct: purchased Cerep; Chantest; DiscoveRx; Multispan; MDS Pharma Services

GABAA = assay: Receptor binding profile of VSN16R; set-up: species or system human; conditions: 10µM VSN16R
rat mesenteric artery = system: rat mesenteric artery; set-up: method as in Hoi et al., 2007; conditions: ref Hoi et al., 2007; read-out: EC50, vasorelaxation of rat mesenteric arteries; cited from earlier work
[4] = system: spastic ABH mice with EAE; assay: Spasticity: resistance to hindlimb flexion against a strain gauge

T10 sequence (Q9Y2T6 whole entry): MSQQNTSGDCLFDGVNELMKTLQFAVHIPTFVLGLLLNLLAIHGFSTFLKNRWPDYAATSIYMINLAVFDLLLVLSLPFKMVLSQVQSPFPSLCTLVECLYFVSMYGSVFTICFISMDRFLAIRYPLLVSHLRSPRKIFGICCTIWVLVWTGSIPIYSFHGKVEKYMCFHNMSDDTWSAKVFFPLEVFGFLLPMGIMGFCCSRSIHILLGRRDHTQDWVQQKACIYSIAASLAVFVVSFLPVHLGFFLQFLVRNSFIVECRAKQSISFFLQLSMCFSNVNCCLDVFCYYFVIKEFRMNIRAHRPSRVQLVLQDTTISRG
T5 sequence (P29371 whole entry): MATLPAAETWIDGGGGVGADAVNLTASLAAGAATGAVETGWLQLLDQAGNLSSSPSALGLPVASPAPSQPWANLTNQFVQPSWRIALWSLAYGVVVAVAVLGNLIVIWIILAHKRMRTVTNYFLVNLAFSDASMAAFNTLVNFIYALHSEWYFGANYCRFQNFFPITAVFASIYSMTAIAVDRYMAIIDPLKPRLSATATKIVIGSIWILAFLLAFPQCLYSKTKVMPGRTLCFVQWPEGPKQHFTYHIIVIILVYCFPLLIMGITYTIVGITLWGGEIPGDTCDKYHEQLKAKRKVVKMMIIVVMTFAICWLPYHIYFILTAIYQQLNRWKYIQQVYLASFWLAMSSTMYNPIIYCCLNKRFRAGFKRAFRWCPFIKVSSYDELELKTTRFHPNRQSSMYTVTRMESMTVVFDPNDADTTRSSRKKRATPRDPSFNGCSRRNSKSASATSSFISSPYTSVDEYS
T2 sequence (P30542 whole entry): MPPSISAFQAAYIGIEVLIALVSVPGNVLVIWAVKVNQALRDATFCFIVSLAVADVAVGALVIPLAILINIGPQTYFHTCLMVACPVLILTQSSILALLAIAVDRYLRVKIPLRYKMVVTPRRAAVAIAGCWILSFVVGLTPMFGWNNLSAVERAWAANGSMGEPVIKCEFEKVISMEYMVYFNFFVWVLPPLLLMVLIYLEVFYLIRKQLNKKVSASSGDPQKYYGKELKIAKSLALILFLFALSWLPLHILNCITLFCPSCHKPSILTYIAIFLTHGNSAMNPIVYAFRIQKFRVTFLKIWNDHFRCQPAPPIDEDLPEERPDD
T9 sequence (P37288 whole entry): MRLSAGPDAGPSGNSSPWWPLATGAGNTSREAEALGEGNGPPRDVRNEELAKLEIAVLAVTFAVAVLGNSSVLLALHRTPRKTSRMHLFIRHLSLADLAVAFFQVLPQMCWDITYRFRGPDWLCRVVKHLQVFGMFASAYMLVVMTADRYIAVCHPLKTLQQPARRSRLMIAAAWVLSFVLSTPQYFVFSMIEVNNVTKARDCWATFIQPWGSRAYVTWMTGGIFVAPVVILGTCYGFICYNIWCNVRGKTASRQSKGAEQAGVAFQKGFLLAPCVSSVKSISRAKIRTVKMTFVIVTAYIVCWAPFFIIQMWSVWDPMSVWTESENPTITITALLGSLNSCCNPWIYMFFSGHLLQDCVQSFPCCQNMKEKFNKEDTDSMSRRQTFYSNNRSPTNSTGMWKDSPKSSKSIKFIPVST
T3 sequence (P14416 1-414 isoform P14416-2): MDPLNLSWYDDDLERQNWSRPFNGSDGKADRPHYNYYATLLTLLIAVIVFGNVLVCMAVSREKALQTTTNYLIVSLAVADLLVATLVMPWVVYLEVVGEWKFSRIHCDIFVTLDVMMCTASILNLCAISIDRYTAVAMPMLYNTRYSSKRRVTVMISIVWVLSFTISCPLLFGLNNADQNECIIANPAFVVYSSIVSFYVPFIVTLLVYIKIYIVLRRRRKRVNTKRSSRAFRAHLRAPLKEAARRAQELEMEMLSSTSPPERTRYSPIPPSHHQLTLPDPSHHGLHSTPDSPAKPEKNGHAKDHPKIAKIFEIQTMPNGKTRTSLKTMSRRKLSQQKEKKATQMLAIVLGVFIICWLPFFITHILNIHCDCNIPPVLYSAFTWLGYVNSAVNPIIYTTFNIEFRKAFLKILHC
T7 sequence (P35372 whole entry): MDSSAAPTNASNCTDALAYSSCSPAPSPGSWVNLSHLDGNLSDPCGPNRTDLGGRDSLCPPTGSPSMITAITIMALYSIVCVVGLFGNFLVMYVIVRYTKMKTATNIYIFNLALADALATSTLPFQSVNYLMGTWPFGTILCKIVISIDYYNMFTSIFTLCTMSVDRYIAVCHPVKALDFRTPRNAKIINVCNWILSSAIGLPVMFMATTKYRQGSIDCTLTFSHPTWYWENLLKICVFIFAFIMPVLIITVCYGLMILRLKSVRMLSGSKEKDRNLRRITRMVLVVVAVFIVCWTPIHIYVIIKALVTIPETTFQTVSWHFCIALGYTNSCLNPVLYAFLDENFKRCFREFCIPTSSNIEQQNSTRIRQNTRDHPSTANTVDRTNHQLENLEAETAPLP
T6 sequence (P49146 whole entry): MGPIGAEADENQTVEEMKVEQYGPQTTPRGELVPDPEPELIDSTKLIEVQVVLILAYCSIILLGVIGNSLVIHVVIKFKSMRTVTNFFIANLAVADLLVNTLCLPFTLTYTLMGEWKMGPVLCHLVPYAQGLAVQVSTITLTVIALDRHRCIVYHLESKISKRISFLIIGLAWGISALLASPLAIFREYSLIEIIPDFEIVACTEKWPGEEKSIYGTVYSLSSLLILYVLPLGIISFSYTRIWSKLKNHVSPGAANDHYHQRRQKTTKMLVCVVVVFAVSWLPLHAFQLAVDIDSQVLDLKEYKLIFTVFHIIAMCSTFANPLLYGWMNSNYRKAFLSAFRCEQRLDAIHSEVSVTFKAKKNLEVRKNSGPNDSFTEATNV
T4 sequence (P21452 whole entry): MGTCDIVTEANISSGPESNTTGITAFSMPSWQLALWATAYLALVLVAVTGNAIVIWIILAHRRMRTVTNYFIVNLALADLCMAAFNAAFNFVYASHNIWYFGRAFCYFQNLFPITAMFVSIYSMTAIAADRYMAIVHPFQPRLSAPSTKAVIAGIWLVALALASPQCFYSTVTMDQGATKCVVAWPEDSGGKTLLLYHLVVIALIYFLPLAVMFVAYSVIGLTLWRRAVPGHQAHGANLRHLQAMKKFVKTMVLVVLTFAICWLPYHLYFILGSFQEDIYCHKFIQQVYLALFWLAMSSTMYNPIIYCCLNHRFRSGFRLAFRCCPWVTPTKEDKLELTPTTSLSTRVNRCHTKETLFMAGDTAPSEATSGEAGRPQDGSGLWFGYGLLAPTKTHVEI
T8 sequence (P34969 whole entry): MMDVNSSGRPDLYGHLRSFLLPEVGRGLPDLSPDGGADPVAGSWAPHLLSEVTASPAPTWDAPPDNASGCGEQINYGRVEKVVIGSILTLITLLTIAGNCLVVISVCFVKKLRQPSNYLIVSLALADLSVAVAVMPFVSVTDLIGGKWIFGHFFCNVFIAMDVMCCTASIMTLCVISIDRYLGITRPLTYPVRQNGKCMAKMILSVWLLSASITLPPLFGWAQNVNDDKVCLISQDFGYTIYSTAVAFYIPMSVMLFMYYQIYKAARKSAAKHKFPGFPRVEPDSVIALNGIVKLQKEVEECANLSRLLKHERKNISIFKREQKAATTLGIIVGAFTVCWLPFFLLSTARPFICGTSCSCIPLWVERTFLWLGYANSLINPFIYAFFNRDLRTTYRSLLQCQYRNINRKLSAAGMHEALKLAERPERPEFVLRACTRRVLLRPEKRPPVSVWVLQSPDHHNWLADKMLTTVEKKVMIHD
T1 sequence (P10635 whole entry): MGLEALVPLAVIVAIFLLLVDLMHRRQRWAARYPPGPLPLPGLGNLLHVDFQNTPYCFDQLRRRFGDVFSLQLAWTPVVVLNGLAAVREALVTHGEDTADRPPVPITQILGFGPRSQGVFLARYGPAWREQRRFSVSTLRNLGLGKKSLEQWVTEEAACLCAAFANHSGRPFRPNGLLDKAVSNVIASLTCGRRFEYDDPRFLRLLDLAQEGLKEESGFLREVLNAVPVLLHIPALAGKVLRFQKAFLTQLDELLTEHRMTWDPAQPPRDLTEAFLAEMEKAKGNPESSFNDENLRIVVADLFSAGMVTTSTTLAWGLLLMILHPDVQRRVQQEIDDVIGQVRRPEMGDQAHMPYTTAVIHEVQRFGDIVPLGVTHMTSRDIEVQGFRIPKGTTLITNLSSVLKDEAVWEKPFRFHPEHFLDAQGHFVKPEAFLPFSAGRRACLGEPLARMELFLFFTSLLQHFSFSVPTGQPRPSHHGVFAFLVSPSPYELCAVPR

C[C@H](CO)NC(=O)c1cccc(/C=C\CCCC(=O)N(C)C)c1 [VSN16R]
Inhibition of spasticity (GPR55‐deficient ABH mice): continued to inhibit spasticity
half-life at 1 μM [1]: > 1.67 h
half-life at 1 μM [2]: > 1.67 h
Reproductive toxicology safe level (rats): 1000 mg·kg^−1
Effect on primary porcine aorta endothelium [3]: do not respond; also recorded: had no effects
IC50 (CYP450 2D6): > 30000 nM
Activity (A1): Negligible Activity
Activity (α1(non-selective)): Negligible Activity
Activity (D2S): Negligible Activity
Activity (NK2): Negligible Activity
Activity (NK3): Negligible Activity
Activity (Y2): Negligible Activity
Activity (μ): Negligible Activity
Activity (5-HT7): Negligible Activity
Activity (V1a): Negligible Activity
Activity (K+V channel): Negligible Activity
Activity (Cl- channel): Negligible Activity
Activity (GPR55; 10µM VSN16R): Negligible Activity
Binding to GPR55 (GPR55; Multispan C1113, H113, HEK293T.GPR55 and mouse DBT.Gpr55 cell lines): does not directly bind
Activity (GABAA): Negligible Activity
EC50 (rat mesenteric artery): 110 nM
Inhibition of spasticity ([4]; 0.5 mg·kg^−1 p.o.): failed to produce rapid muscular relaxation and inhibition of spasticity
Inhibition of spasticity ([4]; 1 mg·kg^−1 p.o.): significant therapeutic activity was evident within 10 min
Inhibition of spasticity ([4]; 5 mg·kg^−1 i.v.): slightly more active than VSN16S
Inhibition of spasticity ([4]; 5 mg·kg^−1 p.o.): significant therapeutic activity was evident within 10 min
Mean group score, resistance to flexion (±SD), one mean per animal ([4]; 5 mg·kg^−1 p.o., 30 min): 0.224 ± 0.067 N
Mean group score, resistance to flexion (±SD), one mean per animal ([4]; 5 mg·kg^−1 p.o., 60 min): 0.214 ± 0.071 N
Therapeutic effect after repeated daily administration ([4]; 40 mg·kg^−1 p.o. for 7 days): therapeutic effect was sustained
Drop of resistance to flexion from baseline ([4]; 40 mg·kg^−1 p.o., visibly spastic animals): 17.8 ± 5.3%
Resistance to flexion force ([4]; 2 weeks after cessation of weekly treatment, mean ± SEM): 0.157 ± 0.045 N
Duration of inhibition of spasticity ([4]; single dose of 40 mg·kg^−1 p.o.): over 6 h
